Here are results for four molecules from ChEMBL document CHEMBL5291721, “A preclinical secondary pharmacology resource illuminates target-adverse drug reaction associations of marketed drugs” (Nat Commun, 2023).

Bounds are passed on as bounds.

In general, AC50 refers to the concentration at which the activity in the assay is half-maximal. A high value points to weaker potency.

Assay [1] addresses Gamma-aminobutyric acid receptor subunit alpha-1 (Rattus norvegicus, UniProt P62813).
The target of the next assay is T1, Glucocorticoid receptor (Homo sapiens, UniProt P04150).
T1 sequence (P04150 whole entry): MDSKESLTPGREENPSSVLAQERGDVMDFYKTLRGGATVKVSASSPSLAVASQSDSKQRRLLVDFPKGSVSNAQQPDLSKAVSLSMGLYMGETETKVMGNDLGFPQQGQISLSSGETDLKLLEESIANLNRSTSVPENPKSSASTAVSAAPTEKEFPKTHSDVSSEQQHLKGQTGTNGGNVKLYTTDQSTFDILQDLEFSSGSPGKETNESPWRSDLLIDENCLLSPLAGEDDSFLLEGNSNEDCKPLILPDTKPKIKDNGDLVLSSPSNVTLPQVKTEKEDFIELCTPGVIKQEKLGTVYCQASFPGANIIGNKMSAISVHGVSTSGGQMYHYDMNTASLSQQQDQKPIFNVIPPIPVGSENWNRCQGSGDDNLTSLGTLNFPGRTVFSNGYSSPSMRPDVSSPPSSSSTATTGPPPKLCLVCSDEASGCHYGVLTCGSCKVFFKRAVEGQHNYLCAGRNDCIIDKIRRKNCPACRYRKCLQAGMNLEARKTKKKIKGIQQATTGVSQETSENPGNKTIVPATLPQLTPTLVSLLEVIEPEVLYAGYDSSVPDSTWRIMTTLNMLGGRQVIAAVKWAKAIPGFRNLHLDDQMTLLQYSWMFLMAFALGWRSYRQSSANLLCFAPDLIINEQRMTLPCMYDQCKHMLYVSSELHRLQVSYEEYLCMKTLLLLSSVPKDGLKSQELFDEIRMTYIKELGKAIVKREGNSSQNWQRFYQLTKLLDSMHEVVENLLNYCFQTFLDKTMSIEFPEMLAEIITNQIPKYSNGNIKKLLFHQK

The target in assay [2] is Sodium-dependent dopamine transporter (Homo sapiens, UniProt Q01959).
Assay [3] deals with T2, Prostaglandin G/H synthase 1 (Rattus norvegicus, UniProt Q63921).
T2 sequence (Q63921 whole entry): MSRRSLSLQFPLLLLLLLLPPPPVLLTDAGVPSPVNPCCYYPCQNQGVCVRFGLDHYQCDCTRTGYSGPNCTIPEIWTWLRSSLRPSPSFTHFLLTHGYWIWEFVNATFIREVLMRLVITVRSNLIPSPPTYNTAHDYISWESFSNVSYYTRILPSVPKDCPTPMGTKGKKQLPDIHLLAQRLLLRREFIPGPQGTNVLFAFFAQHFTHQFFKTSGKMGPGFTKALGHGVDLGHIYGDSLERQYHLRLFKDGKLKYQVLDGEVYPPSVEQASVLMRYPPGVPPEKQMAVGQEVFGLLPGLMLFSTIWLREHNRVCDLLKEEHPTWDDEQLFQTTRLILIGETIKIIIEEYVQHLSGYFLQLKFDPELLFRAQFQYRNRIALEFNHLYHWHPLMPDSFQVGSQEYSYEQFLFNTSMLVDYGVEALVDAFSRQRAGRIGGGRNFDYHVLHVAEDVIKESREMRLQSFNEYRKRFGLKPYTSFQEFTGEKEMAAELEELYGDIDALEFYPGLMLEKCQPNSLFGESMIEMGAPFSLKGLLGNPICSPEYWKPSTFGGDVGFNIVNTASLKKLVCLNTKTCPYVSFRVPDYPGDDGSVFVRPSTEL
The class given is functional.

The next assay addresses T3, B2 bradykinin receptor (Homo sapiens, UniProt P30411).
T3 sequence (P30411 whole entry): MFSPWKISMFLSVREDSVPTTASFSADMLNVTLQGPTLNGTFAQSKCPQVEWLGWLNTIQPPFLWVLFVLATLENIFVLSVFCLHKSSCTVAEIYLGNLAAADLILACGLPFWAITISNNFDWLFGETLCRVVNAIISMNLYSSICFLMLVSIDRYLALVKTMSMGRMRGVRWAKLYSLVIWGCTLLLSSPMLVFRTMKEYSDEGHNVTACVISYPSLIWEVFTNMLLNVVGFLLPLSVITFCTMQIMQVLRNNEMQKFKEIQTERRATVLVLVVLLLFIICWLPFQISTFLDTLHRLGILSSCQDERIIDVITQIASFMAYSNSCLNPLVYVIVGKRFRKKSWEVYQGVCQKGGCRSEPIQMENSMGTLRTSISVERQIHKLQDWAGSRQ

The target in assay [4] is T4, Muscarinic acetylcholine receptor M1 (Homo sapiens, UniProt P11229).
T4 sequence (P11229 whole entry): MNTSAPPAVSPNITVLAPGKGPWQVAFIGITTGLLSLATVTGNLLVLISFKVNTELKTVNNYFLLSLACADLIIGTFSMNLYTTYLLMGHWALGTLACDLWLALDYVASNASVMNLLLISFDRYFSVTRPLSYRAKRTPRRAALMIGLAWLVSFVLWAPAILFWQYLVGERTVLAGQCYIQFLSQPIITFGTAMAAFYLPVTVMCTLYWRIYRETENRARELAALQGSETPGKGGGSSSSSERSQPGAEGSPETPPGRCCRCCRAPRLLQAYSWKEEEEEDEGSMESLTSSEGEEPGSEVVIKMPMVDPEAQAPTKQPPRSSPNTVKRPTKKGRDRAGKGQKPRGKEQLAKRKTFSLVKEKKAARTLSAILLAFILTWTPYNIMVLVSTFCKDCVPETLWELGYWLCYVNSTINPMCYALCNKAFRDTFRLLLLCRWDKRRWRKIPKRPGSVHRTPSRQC
It counts as functional, cell-based.
Also: assay procedure not described here.

Sodium-dependent dopamine transporter, sequence (Q01959 whole entry): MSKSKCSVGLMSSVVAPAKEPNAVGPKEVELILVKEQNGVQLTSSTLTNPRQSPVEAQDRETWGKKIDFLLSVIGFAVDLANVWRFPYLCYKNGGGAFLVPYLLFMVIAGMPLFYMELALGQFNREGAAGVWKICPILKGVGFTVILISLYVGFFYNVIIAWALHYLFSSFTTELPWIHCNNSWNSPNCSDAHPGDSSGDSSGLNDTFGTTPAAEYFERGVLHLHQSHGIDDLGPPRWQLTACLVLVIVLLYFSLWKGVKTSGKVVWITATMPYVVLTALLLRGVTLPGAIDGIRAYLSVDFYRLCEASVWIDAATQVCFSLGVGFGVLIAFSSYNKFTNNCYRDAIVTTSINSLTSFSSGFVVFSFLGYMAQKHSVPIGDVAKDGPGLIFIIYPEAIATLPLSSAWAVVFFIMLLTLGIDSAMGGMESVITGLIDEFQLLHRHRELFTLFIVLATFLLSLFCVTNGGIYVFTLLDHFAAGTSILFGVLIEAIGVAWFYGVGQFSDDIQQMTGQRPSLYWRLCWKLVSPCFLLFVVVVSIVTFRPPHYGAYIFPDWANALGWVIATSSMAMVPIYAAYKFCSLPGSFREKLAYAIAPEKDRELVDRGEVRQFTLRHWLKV
Gamma-aminobutyric acid receptor subunit alpha-1, sequence (P62813 whole entry): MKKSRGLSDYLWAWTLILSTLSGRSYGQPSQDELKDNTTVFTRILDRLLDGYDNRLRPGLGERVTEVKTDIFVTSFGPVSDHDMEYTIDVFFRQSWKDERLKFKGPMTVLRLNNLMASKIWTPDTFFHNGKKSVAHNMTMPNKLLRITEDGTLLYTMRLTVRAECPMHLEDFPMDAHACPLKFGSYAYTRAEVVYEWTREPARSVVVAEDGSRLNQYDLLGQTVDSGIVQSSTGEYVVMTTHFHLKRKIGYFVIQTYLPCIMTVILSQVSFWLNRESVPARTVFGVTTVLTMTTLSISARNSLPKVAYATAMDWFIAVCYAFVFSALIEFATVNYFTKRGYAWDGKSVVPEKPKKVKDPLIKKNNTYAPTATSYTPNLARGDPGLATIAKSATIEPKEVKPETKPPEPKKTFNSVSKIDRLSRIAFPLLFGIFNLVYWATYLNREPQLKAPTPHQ

In the case of `CC(=O)/N=c1/sc(S(N)(=O)=O)nn1C` [METHAZOLAMIDE], the AC50 is above 10 µM in assay [1]; above 10 µM at Glucocorticoid receptor; above 10 µM in assay [2]; above 10 µM in assay [3]; above 10 µM at B2 bradykinin receptor; above 30 µM in assay [4].

As for `CC(=O)Oc1ccccc1C(=O)Nc1ncc([N+](=O)[O-])s1` [NITAZOXANIDE], the concentration at half-maximal activity (AC50) in assay [1] is above 30 µM; on Glucocorticoid receptor, above 30 µM; in assay [2], 7.3 µM; in assay [3], 0.0031 µM; at B2 bradykinin receptor, 4.9 µM; in assay [4], 4.33 µM.

Take `CNC[C@H](O)c1cccc(O)c1` [PHENYLEPHRINE]: the AC50 is above 30 µM in assay [1]; above 10 µM in assay [2]; above 30 µM in assay [3]; above 30 µM on B2 bradykinin receptor; above 30 µM in assay [4].

Consider `CC1(C)O[C@@H]2[C@@H](CO[C@@]3(COS(N)(=O)=O)OC(C)(C)O[C@@H]23)O1` [TOPIRAMATE], for which the AC50 in assay [1] is above 10 µM; in assay [2], above 10 µM; in assay [3] it was above 30 µM; at B2 bradykinin receptor it was above 30 µM; in assay [4], above 30 µM.
